Columns and labels:
[1] = PK study in pentagastrin- or famotidine-pretreated dogs; settings: famotidine-pretreated dogs, similar tablet formulation
Protocol: Pentagastrin pretreatment (6 μg/kg intramuscular injection 30 minutes prior to test formulation dosing) in fasted dogs was used to simulate fasting gastric pH in humans. Famotidine pretreatment (20 mg orally 1 hour prior to test formulation dosing) in fasted dogs was used to simulate human gastric pH when acid suppressant was co-dosed with test formulation. The tablets of the mono-MSA salt or bis-MSA salt of a compound of Formula I (conventional tablet and spray dried formulation) were orally administered followed by a 30 mL water flush.

Solubility in water = format: physicochemical; settings: final pH of the water solubility sample
[2] = Moisture sorption isotherms (Example 6B, Hiden IGASorp / SMS DVS Intrinsic); format: physicochemical; settings: for Water absorbed up to 90% RH: 25 °C
Protocol: Sorption isotherms were obtained using a Hiden IGASorp moisture sorption analyser, controlled by CFRSorp software. The sample temperature was maintained at 25° C. by a Huber re-circulating water bath. The humidity was controlled by mixing streams of dry and wet nitrogen, with a total flow rate of 250 ml/min. The relative humidity (RH) was measured by a calibrated Vaisala RH probe (dynamic range of 0-95% RH), located near the sample. The weight change, (mass relaxation) of the sample as a function of % RH was constantly monitored by the microbalance (accuracy±0.001 mg).
10-20 mg of sample was placed in a tared mesh stainless steel basket under ambient conditions. The sample was loaded and unloaded at 40% RH and 25° C. (typical room conditions).
A moisture sorption isotherm was performed as outlined in Table 1 below (2 scans giving 1 complete cycle). The standard isotherm was performed at 25° C. at 10% RH intervals over a 0-90% RH range.
The software uses a least squares minimization procedure together with a model of the mass relaxation, to predict an asymptotic value. The measured mass relaxation value must be within 5% of that predicted by the software, before the next % RH value is selected. The minimum equilibration time was set to 1 hour and the maximum to 4 hours. […] The sample was recovered after completion of the isotherm and re-analyzed by XRPD.
In other cases, sorption isotherms were also obtained using a SMS DVS Intrinsic moisture sorption analyser, controlled by DVS Intrinsic Control software v1.0.1.2 (or v 1.0.1.3). […] The humidity was controlled by mixing streams of dry and wet nitrogen, with a total flow rate of 200 ml/min The relative humidity was measured by a calibrated Rotronic probe (dynamic range of 1.0-100% RH), located near the sample. The weight change, (mass relaxation) of the sample as a function of % RH was constantly monitored by the microbalance (accuracy±0.005 mg).
5-20 mg of sample was placed in a tared mesh stainless steel basket under ambient conditions. […] The sample was recovered after completion of the isotherm and re-analyzed by XRPD.

[3] = Hygroscopicity by dynamic vapor sorption (Example 6A, Q5000SA); format: physicochemical; settings: after full sorption/desorption cycle
Protocol: Hygroscopicity of polymorph Form 3 and polymorph Form 7 at 25° C. was determined by dynamic vapor sorption (DVS) using an automated vapor sorption balance (Q5000SA; TA instruments, New Castle, Del.). Hygroscopicity was studied as a function of relative humidity (RH) over the range of 0 to 90%. Approximately 10 mg of solid sample was placed directly onto the 13 mm quartz DVS sample cup and equilibrated at 0% relative humidity (RH) until a constant weight was achieved. After equilibration, the RH was increased in increments of 10% to reach 90%, and the water sorption was monitored. For desorption, the relative humidity was deceased in a similar manner to accomplish a full sorption/desorption cycle.
For all experiments, the instrument was operated in dm/dt mode (mass variation over time) to determine when equilibrium was reached. A fixed dm/dt value of 0.0010% min^−1 was selected for all RH segments. A maximum stage of 360 minutes and a minimum stage of 60 minutes were selected for these experiments.

SMILES	Increase of AUC0-24 compared to the mono-MSA salt formulation [1]	final pH (Solubility in water)	Water absorbed up to 90% RH ([2]; listed as Form 3) [wt. %]	Form by XRPD after DVS analysis ([2]; after isotherm)	Form by XRPD at the end of the DVS experiment [3]	Water absorbed up to 90% RH ([2]; listed as Polymorph Form 7) [wt. %]
c1cn2cc(-c3ccc4cn[nH]c4c3)nc(Nc3ccc(N4CCOCC4)cc3)c2n1 [polymorph Form 3]	more than 10 fold	(final pH <1.5)	~20	converted to Form 7	converted to Form 7	
c1cn2cc(-c3ccc4cn[nH]c4c3)nc(Nc3ccc(N4CCOCC4)cc3)c2n1 [polymorph Form 7]						~21

From US10266539B2, “Polymorph of Syk inhibitors” (Gilead Connecticut, Inc., priority 2013, dated 2019)
